Experimental data as given in US20250320213A1, “Nitrogen-Containing Heterocyclic Compounds” (Pfizer Inc., priority 2024, published 2025).
Like-named read-outs stand apart in the source and are kept apart here.

Assays:
STAT6 = target: T1, STAT6 (Homo sapiens, UniProt P42226); assay: STAT6 Reporter Luciferase Assay (IL-13 stimulated HaCaT keratinocyte NanoLuc reporter cells); type: cell-based; conditions: read-out: Reporter EC50
T1 construct: stably transfected HaCaT keratinocyte cell line, which expresses NanoLuc luciferase reporter gene under the transcriptional control of the STAT6 responsive promoter; endogenous in cells; host or cells: HaCaT keratinocyte reporter cell line (stably transfected with a NanoLuc reporter)
T1 sequence (P42226 1-847): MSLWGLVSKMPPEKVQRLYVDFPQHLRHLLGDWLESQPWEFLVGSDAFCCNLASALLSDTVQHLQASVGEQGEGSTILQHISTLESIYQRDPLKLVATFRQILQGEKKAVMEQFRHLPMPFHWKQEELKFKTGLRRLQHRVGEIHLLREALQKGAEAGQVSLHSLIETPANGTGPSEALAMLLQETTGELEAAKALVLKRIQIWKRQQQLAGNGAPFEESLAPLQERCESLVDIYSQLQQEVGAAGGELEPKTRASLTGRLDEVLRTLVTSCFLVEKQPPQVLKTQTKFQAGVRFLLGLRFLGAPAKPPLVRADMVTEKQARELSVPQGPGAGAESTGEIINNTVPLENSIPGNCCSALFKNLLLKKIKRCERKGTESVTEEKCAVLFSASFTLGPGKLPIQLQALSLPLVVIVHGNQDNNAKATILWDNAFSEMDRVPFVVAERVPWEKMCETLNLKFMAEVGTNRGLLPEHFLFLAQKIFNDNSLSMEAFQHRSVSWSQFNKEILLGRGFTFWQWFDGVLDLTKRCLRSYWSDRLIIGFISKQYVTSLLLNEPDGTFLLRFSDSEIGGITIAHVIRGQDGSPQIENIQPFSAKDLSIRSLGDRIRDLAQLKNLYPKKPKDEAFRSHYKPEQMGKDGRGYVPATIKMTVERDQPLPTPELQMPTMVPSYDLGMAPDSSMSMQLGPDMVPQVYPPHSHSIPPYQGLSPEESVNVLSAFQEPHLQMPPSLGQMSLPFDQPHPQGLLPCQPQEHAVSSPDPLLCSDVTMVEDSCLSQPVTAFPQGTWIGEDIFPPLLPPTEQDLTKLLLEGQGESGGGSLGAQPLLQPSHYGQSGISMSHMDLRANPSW
Outline: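 IL-13 (0.12 nM, 4 h) stimulated STAT6 reporter activity in HaCaT cells after a 2 h compound pre-incubation; NanoLuc signal was measured.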

[1] = tested on: CCL17 secretion in peripheral human whole blood; assay: Human Whole Blood (HWB) CCL17 TR-FRET Assay (IL-13 stimulated CCL17 secretion); type: cell-based
Outline: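 Heparinized human whole blood was preincubated with compound (11-point, 3-fold series) for 2 h at 37°C, then stimulated with IL-13 (10 ng/mL final) for 48 h. Serum CCL17 was measured by TR-FRET sandwich immunoassay (665/615 nm ratio) after 16 h at room temperature, giving IC50.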

[2] = IL-13 stimulated HaCaT STAT6 NanoLuc reporter cells
[3] = Homo sapiens, 48 h, human whole blood, IL-13 stimulated
[4] = STAT6 NanoLuc luciferase reporter, IL-13 stimulated HaCaT keratinocyte cells
[5] = Homo sapiens, 48 h, inhibition of CCL17 secretion in human whole blood, 10 ng/mL IL13, 48 hours
[6] = Homo sapiens, 48 h, human whole blood, IL-13 10 ng/mL
[7] = inhibition of CCL17 secretion in human whole blood, 10 ng/mL IL13, 48 hours

Row | SMILES | EC50 (STAT6; [2]) [nM] | IC50 [1, 3] [nM] | further results
1 | CC(CC#N)n1nc(C(=O)NCc2ccc(NC(=O)N(C)C)cc2)c2c1CCN(c1ccc(C(=O)N(C)C)cn1)C2 (racemic) [Example 358, rac-(R)-1-(1-cyanopropan-2-yl)-5-(5-(dimethylcarbamoyl)pyridin-2-yl)-N-(4-(3,3-dimethylureido)benzyl)-4,5,6,7-tetrahydro-1H-pyrazolo[4,3-c]pyridine-3-carboxamide] | 51 | 112 | –
2 | CO[C@H]1CN(C(=O)Nc2ccc(CNC(=O)c3nn(C(C)C)c4c3CN(c3ccc(C(=O)N(C)C)cn3)CC4)cc2)C[C@@H]1O [Example 166, 5-(5-(dimethylcarbamoyl)pyridin-2-yl)-N-(4-((3S,4S)-3-hydroxy-4-methoxypyrrolidine-1-carboxamido)benzyl)-1-isopropyl-4,5,6,7-tetrahydro-1H-pyrazolo[4,3-c]pyridine-3-carboxamide] | – | – | EC50 (STAT6; [4]): 4 nM; IC50 [1, 5]: 21 nM
3 | CCC(C)n1nc(C(=O)NCc2ccc(NC(=O)N(C)C)cc2)c2c1CCN(c1ccc(C(=O)N(C)C)cn1)C2 (single isomer, unassigned) [Example 234, rel-(R or S)-1-(sec-butyl)-5-(5-(dimethylcarbamoyl)pyridin-2-yl)-N-(4-(3,3-dimethylureido)benzyl)-4,5,6,7-tetrahydro-1H-pyrazolo[4,3-c]pyridine-3-carboxamide] | 20 | 80 | –
4 | CCOC(=O)Nc1ccc(CNC(=O)c2nn(C(C)C)c3c2CN(c2ccc(C(=O)N(C)C)cn2)CC3)cc1 [Example 236, Ethyl (4-((5-(5-(dimethylcarbamoyl)pyridin-2-yl)-1-isopropyl-4,5,6,7-tetrahydro-1H-pyrazolo[4,3-c]pyridine-3-carboxamido)methyl)phenyl)carbamate] | 17 | – | IC50 ([1]; human whole blood, IL-13 stimulated, 48 hours): 254 nM
5 | CC(C)n1nc(C(=O)NCc2ccc(NC(=O)N(C)C)cc2)c2c1CCN(c1ccc(N3C[C@H](C)CC3=O)cn1)C2 [Example 67, (R)-N-(4-(3,3-dimethylureido)benzyl)-1-isopropyl-5-(5-(4-methyl-2-oxopyrrolidin-1-yl)pyridin-2-yl)-4,5,6,7-tetrahydro-1H-pyrazolo[4,3-c]pyridine-3-carboxamide] | – | – | EC50 (STAT6; [4]): 64 nM; IC50 [1, 5]: 5020 nM
6 | CC(C)n1nc(C(=O)NCc2ccc(C(N)=O)cc2)c2c1[C@@H](C)CN(c1ccc(N3CCCC3=O)cn1)C2 [Example 479, (S)-N-(4-carbamoylbenzyl)-1-isopropyl-7-methyl-5-(5-(2-oxopyrrolidin-1-yl)pyridin-2-yl)-4,5,6,7-tetrahydro-1H-pyrazolo[4,3-c]pyridine-3-carboxamide] | 4 | 15 | –
7 | CCn1nc(C(=O)NCc2ccc(NC(=O)N(C)C)cn2)c2c1[C@@H](C)CN(c1ccc(C(=O)N(C)C)cn1)C2 [Example 302, (S)-5-(5-(dimethylcarbamoyl)pyridin-2-yl)-N-((5-(3,3-dimethylureido)pyridin-2-yl)methyl)-1-ethyl-7-methyl-4,5,6,7-tetrahydro-1H-pyrazolo[4,3-c]pyridine-3-carboxamide] | 6 | 9 | –
8 | CC(C)n1nc(C(=O)NCc2ccc(NC(=O)N(C)C)cc2)c2c1[C@@H](C)[C@H](C)N(c1ccc(C(=O)N(C)C)cn1)C2 (single isomer, unassigned) [Example 355] | 0.2 | 3 | –
9 | CC(C)n1nc(C(=O)NCc2ccc(NC(=O)N[C@H]3C[C@@H](O)C3)cc2)c2c1CCN(c1ccc(C(=O)N(C)C)cn1)C2 [Example 169] | – | – | EC50 (STAT6; [4]): 32 nM; IC50 [1, 5]: 125 nM
10 | CCn1nc(C(=O)NCc2ccc(C(N)=O)cc2)c2c1[C@@H](C)CN(c1ncc(N3CCCC3=O)cn1)C2 [Example 483, (S)-N-(4-carbamoylbenzyl)-1-ethyl-7-methyl-5-(5-(2-oxopyrrolidin-1-yl)pyrimidin-2-yl)-4,5,6,7-tetrahydro-1H-pyrazolo[4,3-c]pyridine-3-carboxamide] | 33 | 63 | –
11 | CC(C)n1nc(C(=O)NCc2ccc(NC(=O)N3CCN(C)CC3)cc2F)c2c1[C@@H](C)CN(c1ccc(C(=O)N(C)C)cc1)C2 [Example 718, (S)-5-(4-(dimethylcarbamoyl)phenyl)-N-(2-fluoro-4-(4-methylpiperazine-1-carboxamido)benzyl)-1-isopropyl-7-methyl-4,5,6,7-tetrahydro-1H-pyrazolo[4,3-c]pyridine-3-carboxamide] | 1 | – | IC50 [1, 6]: 18 nM
12 | CC(C)n1nc(C(=O)NCc2ccc(NC(=O)N(C)C)cc2)c2c1CCN(c1ccc(CC(=O)N(C)C)cn1)C2 [Example 286, 5-(5-(2-(Dimethylamino)-2-oxoethyl)pyridin-2-yl)-N-(4-(3,3-dimethylureido)benzyl)-1-isopropyl-4,5,6,7-tetrahydro-1H-pyrazolo[4,3-c]pyridine-3-carboxamide] | 663 | > 3060 | –
13 | CN(C)C(=O)Nc1ccc(CNC(=O)c2nn(C)c3c2[C@H]2CCC[C@@H](C3)N2c2ccc(C(=O)N(C)C)cn2)cc1 (racemic) [Example 68, rac-(4R,8S)-10-(5-(dimethylcarbamoyl)pyridin-2-yl)-N-(4-(3,3-dimethylureido)benzyl)-1-methyl-4,5,6,7,8,9-hexahydro-1H-4,8-epiminocycloocta[c]pyrazole-3-carboxamide] | – | – | EC50 (STAT6; [4]): 9 nM; IC50 [1, 7]: 43 nM
14 | CC(C)n1nc(C(=O)NCc2ccc(NC(N)=O)cc2)c2c1CCN(c1ccc(C(N)=O)cn1)C2 [Example 457, 5-(5-carbamoylpyridin-2-yl)-1-isopropyl-N-(4-ureidobenzyl)-4,5,6,7-tetrahydro-1H-pyrazolo[4,3-c]pyridine-3-carboxamide] | 5960 | 5010 | –
15 | Cc1cncc(-c2ccc(CNC(=O)c3nn(C(C)C)c4c3CN(c3ccc(C(=O)N(C)C)cc3)C[C@H]4C)cc2)n1 [Example 724, (R)-5-(4-(dimethylcarbamoyl)phenyl)-1-isopropyl-7-methyl-N-(4-(6-methylpyrazin-2-yl)benzyl)-4,5,6,7-tetrahydro-1H-pyrazolo[4,3-c]pyridine-3-carboxamide] | 129 | – | IC50 [1, 6]: 5060 nM
16 | CC(C)n1nc(C(=O)NCc2ccc(NC(=O)N3CCNCC3)nc2)c2c1[C@@H](C)CN(c1ccc(C(=O)N(C)C)cc1)C2 [Example 699, (S)-5-(4-(dimethylcarbamoyl)phenyl)-1-isopropyl-7-methyl-N-((6-(piperazine-1-carboxamido)pyridin-3-yl)methyl)-4,5,6,7-tetrahydro-1H-pyrazolo[4,3-c]pyridine-3-carboxamide] | 4 | – | IC50 ([1]; Homo sapiens, 48 h, human whole blood, 10 ng/mL IL13, 48 hours): 27 nM
17 | Cc1nc(C(=O)NCc2ccc(NC(=O)N(C)C)cc2)c2n1C(C)CN(c1ccc(C(=O)N(C)C)cn1)C2 (single isomer, unassigned) [Example 53, rel-(R or S)-7-(5-(dimethylcarbamoyl)pyridin-2-yl)-N-(4-(3,3-dimethylureido)benzyl)-3,5-dimethyl-5,6,7,8-tetrahydroimidazo[1,5-a]pyrazine-1-carboxamide] | – | – | EC50 (STAT6; [4]): 8 nM; IC50 [1, 7]: 19 nM
18 | CNC(=O)Nc1ccc(CNC(=O)c2nn(C(C)C)c3c2CN(c2ncc(N4CCCC4=O)cn2)C[C@@H]3C)cc1 [Example 481, (S)-1-isopropyl-7-methyl-N-(4-(3-methylureido)benzyl)-5-(5-(2-oxopyrrolidin-1-yl)pyrimidin-2-yl)-4,5,6,7-tetrahydro-1H-pyrazolo[4,3-c]pyridine-3-carboxamide] | 1 | 14 | –
